Test results taken from US9199981B2 (NOVARTIS AG, priority 2011, dated 2015).

Target: c-kit (Homo sapiens (Human), UniProt P10721)
Test: Mo7e cell proliferation assay (SCF dependent proliferation)
Assay type: cell-based
Conditions: Mo7e cells stimulated with human recombinant SCF, 48 hours, 1% FBS
Experimental: Compounds of Formula (I) and Formula (II) provided herein were assayed to measure their capacity to inhibit c-kit and PDGFR kinases using the appropriate assay described below: c-Kit inhibition was evaluated using the Mo7e cell proliferation assay, and PDGFR inhibition was evaluated using the Rat A10 cell proliferation assay and the Human TG/HA-VSMC cell proliferation assay.
Mo7e Cell Proliferation Assay
The compounds of Table 1 and Table 2 were tested for inhibition of SCF dependent proliferation using human Mo7e cells which endogenously express c-kit in a 384 well format. […] After 48 hours of incubation at 37° C., cell viability was measured by adding 25 uL of CellTiter Glo (Promega) to the cells and the luminescence was measured by a CLIPR CCD camera (Molecular Devices).
The IC50 value is given as that concentration of the test compound in question that provoke a response halfway between the baseline and maximum responses.

Sequence of c-kit (P10721 26-976): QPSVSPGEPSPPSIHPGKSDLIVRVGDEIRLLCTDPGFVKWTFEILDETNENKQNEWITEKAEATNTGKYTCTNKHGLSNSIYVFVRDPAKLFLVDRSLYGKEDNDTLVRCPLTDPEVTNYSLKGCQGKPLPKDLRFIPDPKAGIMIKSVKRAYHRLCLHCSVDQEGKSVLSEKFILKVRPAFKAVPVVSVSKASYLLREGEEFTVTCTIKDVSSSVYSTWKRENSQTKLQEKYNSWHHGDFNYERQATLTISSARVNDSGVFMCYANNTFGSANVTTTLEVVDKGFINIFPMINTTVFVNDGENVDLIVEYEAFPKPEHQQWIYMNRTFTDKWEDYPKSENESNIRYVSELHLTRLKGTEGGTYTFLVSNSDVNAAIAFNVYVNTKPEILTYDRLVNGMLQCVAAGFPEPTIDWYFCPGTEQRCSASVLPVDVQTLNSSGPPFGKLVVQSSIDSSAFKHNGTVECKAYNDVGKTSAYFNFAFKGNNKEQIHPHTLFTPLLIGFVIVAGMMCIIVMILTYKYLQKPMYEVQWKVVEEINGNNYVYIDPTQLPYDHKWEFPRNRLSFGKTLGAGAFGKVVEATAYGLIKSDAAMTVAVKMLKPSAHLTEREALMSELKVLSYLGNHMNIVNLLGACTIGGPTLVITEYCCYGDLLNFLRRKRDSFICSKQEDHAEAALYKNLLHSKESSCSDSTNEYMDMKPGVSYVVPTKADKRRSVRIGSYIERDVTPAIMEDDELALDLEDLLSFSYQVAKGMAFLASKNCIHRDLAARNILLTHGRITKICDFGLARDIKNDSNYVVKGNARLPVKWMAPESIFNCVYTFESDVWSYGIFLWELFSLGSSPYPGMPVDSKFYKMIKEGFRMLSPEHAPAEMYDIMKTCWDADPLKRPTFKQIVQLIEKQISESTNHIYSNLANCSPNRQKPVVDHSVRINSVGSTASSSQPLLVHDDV

| IC50 [nM] | Compound |
| --- | --- |
| 46 | Cc1ccc(-c2noc([C@H]3CC3(F)F)n2)cc1NC(=O)c1cnc2ccccn12 (stereo in doubt) [F87, N-(5-(5-(2,2-difluorocyclopropyl)-1,2,4-oxadiazol-3-yl)-2-methylphenyl)imidazo[1,2-a]pyridine-3-carboxamide] |
| 66 | Cc1ccc(-c2noc([C@@H]3CC3(F)F)n2)cc1NC(=O)c1cnc2ccccn12 (stereo in doubt) [F88, N-(5-(5-(2,2-difluorocyclopropyl)-1,2,4-oxadiazol-3-yl)-2-methylphenyl)imidazo[1,2-a]pyridine-3-carboxamide] |
| 24 | Cc1ccc(-c2nc(C3CC(F)(F)C3)no2)cc1NC(=O)c1cnc2ccccn12 [F1] |
| 24 | Cc1ccc(-c2noc(C3CCC(F)(F)CC3)n2)cc1NC(=O)c1cnc2ccccn12 [F5] |
| 119 | Cc1ccc(-c2noc([C@H]3C[C@@](C)(O)C3)n2)cc1NC(=O)c1cnc2ccccn12 [F6, N-(5-(5-((1s,3s)-3-hydroxy-3-methylcyclobutyl)-1,2,4-oxadiazol-3-yl)-2-methylphenyl)imidazo[1,2-a]pyridine-3-carboxamide] |
| 15 | CON=C1CC(c2nc(-c3ccc(C)c(NC(=O)c4cnc5ccccn45)c3)no2)C1 (centres unmarked) [F7, N-(5-(5-(3-(methoxyimino)cyclobutyl)-1,2,4-oxadiazol-3-yl)-2-methylphenyl)imidazo[1,2-a]pyridine-3-carboxamide] |
| 55 | Cc1ccc(-c2noc(C3CC4(C3)OCCO4)n2)cc1NC(=O)c1cnc2ccccn12 [F8, N-(5-(5-(5,8-dioxaspiro[3.4]octan-2-yl)-1,2,4-oxadiazol-3-yl)-2-methylphenyl)imidazo[1,2-a]pyridine-3-carboxamide] |
| 52 | Cc1ccc(-c2noc(C3CC4(C3)OC[C@@H](C)O4)n2)cc1NC(=O)c1cnc2ccccn12 (some centres unmarked) [F9] |
| 52 | Cc1ccc(-c2noc(C3CC4(C3)OCCCO4)n2)cc1NC(=O)c1cnc2ccccn12 [F10] |
| 12 | Cc1ccc(-c2noc(C3CC4(C3)OC[C@H](C)O4)n2)cc1NC(=O)c1cnc2ccccn12 (some centres unmarked) [F12] |
| 12 | CCON=C1CC(c2nc(-c3ccc(C)c(NC(=O)c4cnc5ccccn45)c3)no2)C1 (centres unmarked) [F14] |
| 66 | Cc1ccc(-c2noc(C3CC(=NOC(C)C)C3)n2)cc1NC(=O)c1cnc2ccccn12 (centres unmarked) [F16] |
| 109 | Cc1ccc(-c2noc([C@H]3C[C@H](N)C3)n2)cc1NC(=O)c1cnc2ccccn12 [F17] |
| 25 | COCCO[C@H]1C[C@@H](c2nc(-c3ccc(C)c(NC(=O)c4cnc5ccccn45)c3)no2)C1 [F18, N-(5-(5-((1s,3s)-3-(2-methoxyethoxy)cyclobutyl)-1,2,4-oxadiazol-3-yl)-2-methylphenyl)imidazo[1,2-a]pyridine-3-carboxamide] |
| 9 | [2H]C([2H])([2H])O[C@H]1C[C@@H](c2nc(-c3ccc(C)c(NC(=O)c4cnc5ccccn45)c3)no2)C1 [F19] |
| 49 | COCC1(c2nc(-c3ccc(C)c(NC(=O)c4cnc5ccccn45)c3)no2)CC1 [F20] |
| 89 | Cc1ccc(-c2noc(C3(NC(=O)OC(C)(C)C)CC3)n2)cc1NC(=O)c1cnc2ccccn12 [F21] |
| 56 | Cc1ccc(-c2noc(C3(NS(C)(=O)=O)CC3)n2)cc1NC(=O)c1cnc2ccccn12 [F22] |
| 58 | COC(=O)NC1(c2nc(-c3ccc(C)c(NC(=O)c4cnc5ccccn45)c3)no2)CC1 [F24] |
| 13 | Cc1ccc(-c2noc(C3CC(O)(C(F)(F)F)C3)n2)cc1NC(=O)c1cnc2ccccn12 (centres unmarked) [F25, N-(5-(5-(3-hydroxy-3-(trifluoromethyl)cyclobutyl)-1,2,4-oxadiazol-3-yl)-2-methylphenyl)imidazo[1,2-a]pyridine-3-carboxamide] |
| 58 | Cc1ccc(-c2noc(CNC(=O)OC3(C)CC3)n2)cc1NC(=O)c1cnc2ccccn12 [F26] |
| 69 | COC(=O)NC1(c2nc(-c3ccc(C)c(NC(=O)c4cnc5ccccn45)c3)no2)CCC1 [F27] |
| 95 | Cc1ccc(-c2noc(C3(NS(C)(=O)=O)CCC3)n2)cc1NC(=O)c1cnc2ccccn12 [F28] |
| 58 | Cc1ccc(-c2noc(C3(N(C)C)CC3)n2)cc1NC(=O)c1cnc2ccccn12 [F29, N-(5-(5-(1-(dimethylamino)cyclopropyl)-1,2,4-oxadiazol-3-yl)-2-methylphenyl)imidazo[1,2-a]pyridine-3-carboxamide] |

| IC50 [nM] | Compound |
| --- | --- |
| 16 | C=C1CC(c2nc(-c3ccc(C)c(NC(=O)c4cnc5ccccn45)c3)no2)C1 [F30] |
| 50 | Cc1ccc(-c2noc(C3CC(O)(C4CC4)C3)n2)cc1NC(=O)c1cnc2ccccn12 (centres unmarked) [F31, N-(5-(5-(3-cyclopropyl-3-hydroxycyclobutyl)-1,2,4-oxadiazol-3-yl)-2-methylphenyl)imidazo[1,2-a]pyridine-3-carboxamide] |
| 25 | Cc1ccc(-c2noc(C3CC(=CCCO)C3)n2)cc1NC(=O)c1cnc2ccccn12 (centres unmarked) [F32, N-(5-(5-(3-(3-hydroxypropylidene)cyclobutyl)-1,2,4-oxadiazol-3-yl)-2-methylphenyl)imidazo[1,2-a]pyridine-3-carboxamide] |
| 88 | Cc1ccc(-c2noc(C3CC4(CCCO4)C3)n2)cc1NC(=O)c1cnc2ccccn12 (centres unmarked) [F33] |
| 16 | Cc1ccc(-c2noc(CNC3CC(F)(F)C3)n2)cc1NC(=O)c1cnc2ccccn12 [F34] |
| 3 | Cc1ccc(-c2noc(COC3CC(F)(F)C3(F)F)n2)cc1NC(=O)c1cnc2ccccn12 (centres unmarked) [F35] |
| 28 | Cc1ccc(-c2noc(C3CC(F)C3)n2)cc1NC(=O)c1cnc2ccccn12 (centres unmarked) [F36, N-(5-(5-(3-fluorocyclobutyl)-1,2,4-oxadiazol-3-yl)-2-methylphenyl)imidazo[1,2-a]pyridine-3-carboxamide] |
| 60 | Cc1ccc(-c2noc(C3CC(F)(F)C3)n2)cc1NC(=O)c1cnc2ccc(CO)cn12 [F37, N-(5-(5-(3,3-difluorocyclobutyl)-1,2,4-oxadiazol-3-yl)-2-methylphenyl)-6-(hydroxymethyl)imidazo[1,2-a]pyridine-3-carboxamide] |
| 25 | Cc1ccc(-c2noc(C3CC(F)(F)C3)n2)cc1NC(=O)c1cnc2ccc(COCCO)cn12 [F38] |
| 37 | COCc1ccc2ncc(C(=O)Nc3cc(-c4noc(C5CC(F)(F)C5)n4)ccc3C)n2c1 [F39] |
| 9 | Cc1ccc(-c2noc(C3CC(F)(F)C3)n2)cc1NC(=O)c1cnc2ccc(-c3cn[nH]c3)cn12 [F40, N-(5-(5-(3,3-difluorocyclobutyl)-1,2,4-oxadiazol-3-yl)-2-methylphenyl)-6-(1H-pyrazol-4-yl)imidazo[1,2-a]pyridine-3-carboxamide] |
| 11 | Cc1ccc(-c2noc(C3CC(F)(F)C3)n2)cc1NC(=O)c1cnc2ccc(-c3cnn(CCO)c3)cn12 [F41] |
| 7 | Cc1ccc(-c2noc(C3CC(F)(F)C3)n2)cc1NC(=O)c1cnc2ccc(-c3cnn(C)c3)cn12 [F42] |
| 12 | Cc1ccc(-c2noc(C3CC(F)(F)C3)n2)cc1NC(=O)c1cnc2ccc(-c3ccn(C)n3)cn12 [F43] |
| 6 | Cc1ccc(-c2noc(C3CC(F)(F)C3)n2)cc1NC(=O)c1cnc2ccc(-c3cnn(CC(C)(C)O)c3)cn12 [F44] |
| 71 | Cc1ccc(-c2noc(C3CC(n4cccn4)C3)n2)cc1NC(=O)c1cnc2ccccn12 (centres unmarked) [F45, N-(5-(5-(3-(1H-pyrazol-1-yl)cyclobutyl)-1,2,4-oxadiazol-3-yl)-2-methylphenyl)imidazo[1,2-a]pyridine-3-carboxamide] |
| 13 | Cc1ccc(-c2noc(C3CC(F)(F)C3)n2)cc1NC(=O)c1cnc2ccc(-c3cscn3)cn12 [F46] |
| 33 | Cn1cc(-c2ccc3ncc(C(=O)Nc4cc(-c5noc(C6CC(F)(F)C6)n5)ccc4F)n3c2)cn1 [F47] |
| 16 | CC(C)(O)Cn1cc(-c2ccc3ncc(C(=O)Nc4cc(-c5noc(C6CC(F)(F)C6)n5)ccc4F)n3c2)cn1 [F48] |
| 33 | Cc1ccc(-c2noc(C3CC(F)(F)C3)n2)cc1NC(=O)c1cnc2cc(C3CCN(S(C)(=O)=O)CC3)ccn12 [F49, N-(5-(5-(3,3-difluorocyclobutyl)-1,2,4-oxadiazol-3-yl)-2-methylphenyl)-7-(1-(methylsulfonyl)piperidin-4-yl)imidazo[1,2-a]pyridine-3-carboxamide] |
| 26 | Cc1ccc(-c2noc(C3CC(F)(F)C3)n2)cc1NC(=O)c1cnc2ccc(-c3cnn(CCN4CCOCC4)c3)cn12 [F50] |
| 85 | O=C(Nc1cc(-c2noc(C3CC(F)(F)C3)n2)ccc1F)c1cnc2ccc(-c3cnn(CCN4CCOCC4)c3)cn12 [F51] |
| 79 | Cc1ccc(-c2noc(C3CC(F)(F)C3)n2)cc1NC(=O)c1cnc2ccc(COCC(F)(F)F)cn12 [F52] |
| 45 | CC(=O)CCc1ccc2ncc(C(=O)Nc3cc(-c4noc(C5CC(F)(F)C5)n4)ccc3C)n2c1 [F53, N-(5-(5-(3,3-difluorocyclobutyl)-1,2,4-oxadiazol-3-yl)-2-methylphenyl)-6-(3-oxobutyl)imidazo[1,2-a]pyridine-3-carboxamide] |

| Compound | IC50 [nM] |
| --- | --- |
| Cc1ccc(-c2noc(C3CC(=NO)C3)n2)cc1NC(=O)c1cnc2ccccn12 (centres unmarked) [F4] | 22 |
| Cc1ccc(-c2noc(C3CC(=NOCC4CC4)C3)n2)cc1NC(=O)c1cnc2ccccn12 (centres unmarked) [F15] | 35 |

Same assay, conditions: Mo7e cells stimulated with human recombinant SCF, 48 hours, 20% FBS (values marked *)

| IC50 [nM] | Compound |
| --- | --- |
| 58 | Cc1ccc(-c2noc(C3CCC(=O)C3)n2)cc1NC(=O)c1cnc2ccccn12 (centres unmarked) [F2] |
| 164 | Cc1ccc(-c2noc(C3CC(C)(O)C3)n2)cc1NC(=O)c1cnc2ccccn12 (centres unmarked) [F3] |
| 41 | Cc1ccc(-c2noc(C3CC(=O)C3)n2)cc1NC(=O)c1cnc2ccccn12 [F11] |
